Tested on: HCV replicon-containing cells (Huh7/Clone A)
Assay: HCV Replicon Assay
Type: cell-based
Conditions: Hepatitis C virus, Huh-7, 48 hours incubation, HCV replicon RNA by RT-qPCR normalized to total RNA, read-out: IC50 of inhibition of HCV replication
Excerpt: The HCV replicon assay is a cell-culture system that mimics in vivo HCV replication and provides a system to study HCV replication in vitro. It was created by transfecting cloned viral RNA derived from a consensus HCV genomic sequence into human Huh7 hepatoma cells that are semi-permissive for viral RNA production (Lohmann V., Korner F., Koch J.-O., Herian U., Theilmann L. and Bartenschlager R. (1999). Replication of subgenomic Hepatitis C virus RNAs in a hepatoma cell line. Science 285, 110-113 and Blight K. J., Kolykhalov A. A. and Rice C. M. (2000). Efficient initiation of HCV RNA Replication in cell culture. Science 290, 972-1974). […] Replicon-containing cells autonomously and persistently replicate HCV RNA that can be measured quantitatively by real-time qPCR. Therefore, the replicon system facilitates quantitative assessment of anti-viral activity by monitoring changes in HCV RNA replication in a cell-based assay. […]
Total RNA eluted in 130 μl of RNase-freed H2O was quantitated by the RiboGreen Assay according to the supplier's protocol (Molecular Probe). […] RNA samples in the black microplate were mixed with 95 μl of diluted RiboGreen reagent (1:250 dilution in TE buffer) and sample fluorescence was measured using a fluorescence microplate reader at standard fluorescein wavelengths (excitation ˜480 nm, emission ˜520 nm). […]

With `O=C(OCc1ccc(Cl)cc1)c1cn(Cc2ccc(Cl)cc2)c2cc(N3CCNCC3)c(F)cc2c1=O` [Compound 1, 1-(4-chlorobenzyl)-6-fluoro-4-oxo-7-piperazin-1-yl-1,4-dihydro-quinoline-3-carboxylic acid 4-chlorobenzyl ester] the IC50 was < 5 µM.

Source: patent publication US20070032522A1, “Antiviral agents” (priority 2005, published 2007)
